Test results from patent US20240342066A1, “HIGH POTENCY EMULSIONS” (Vertosa Inc., priority 0001, published 2024).

Tested on: skin
Experiment: Patch test for skin irritation and allergy
Assay type: in vivo, human
Conditions: positive control
Description: These three emulsions were first evaluated for skin irritation and allergy studies using a patch test at a third-party skin care evaluation lab. The three pure emulsion formulas were tested at 20 mg/mL concentration on the patch on 55 subjects.
The patches were prepared with each of the 3 different emulsion types separately. Each emulsion was prepared at 20 mg/g. The test was focused on the effects of the emulsion without the influence of any other skin care ingredients. The goal was to stress test if pure emulsion can cause any skin irritation. […]
Below is the procedure of the patch test: • Step 1: Subjects were requested to bathe or wash as usual before arrival at the facility. • Step 2: Patches containing the test material were then affixed directly to the skin of the intrascapular regions of the back, to the right or left of the midline, and subjects were dismissed with instructions not to wet or expose the test area to direct sunlight. • Step 3: Patches remained in place for 48 hours after the first application. […] Test sites were evaluated by trained laboratory personnel 48 and 96 hours after application. • Step 7: In the event of an adverse reaction, the area of erythema and edema were measured. […]

For `CCCCCCCCCCCCOS(=O)(=O)[O-].[Na+]` [2.0% Sodium Lauryl Sulfate Solution, Sodium Lauryl Sulfate], the “subjects with a Grade 1 reaction” value was 8 subjects.
